# Laboratory results from US10227357B2, “Compounds and methods for kinase modulation, and indications therefor” (Plexxikon Inc., priority 2012, dated 2019).
# Assays:
# c-kit mutant D816V = biological target: T1, c-kit mutant D816V (Homo sapiens, UniProt P10721, D816V/DEL694-753); assay: c-Kit mutant D816V biochemical assay, AlphaScreen; settings: c-kit D816V biochemical inhibitory activity; read-out: Biochemical activity (IC50 μM) Kit D816V
# T1 construct: residues 551-934, kinase insertion domain residues 694-753 deleted; 6x-histidine (N); made in house; host or cells: E. coli Arctic Express (DE3) RIL (Stratagene)
# Procedure, shortened: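 Purified His-tagged c-Kit D816V (E. coli-expressed) assayed in 25 mM HEPES pH 7.2 with Mg/Mn, 5% DMSO and 10 μM ATP, 30 min at room temperature, 8-point 1:3 dilutions. Phosphorylation detected by AlphaScreen with streptavidin donor and PY20 acceptor beads; IC50 from signal versus concentration.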
# c-kit kinase = biological target: T2, c-kit kinase (Homo sapiens, UniProt P10721); assay: c-Kit biochemical assay, AlphaScreen, 10 μM ATP; settings: c-kit biochemical inhibitory activity; read-out: Biochemical activity (IC50 μM) Kit
# T2 construct: The c-kit (or kinase domain thereof) is an active kinase in AlphaScreen; poly-Histidine tag (in-house protein only) (cleaved yes); host or cells: E. coli BL21(DE3)RIL, co-expressed with PTP1B
# Procedure, shortened: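 His-tagged c-Kit expressed in E. coli with co-expressed PTP1B (dephosphorylated), tag removed; 0.1 ng per reaction with biotinylated-peptide substrate in 50 mM HEPES pH 7.2, 5 mM MgCl2, 5 mM MnCl2, 5% DMSO, 10 μM ATP, 1 h at room temperature. Phosphorylation detected by AlphaScreen (streptavidin donor, PY20 acceptor beads); IC50 from 8-point 1:3 dilution series.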
# T1 sequence (P10721 with tags, fused parts or gaps DEL694-753/D816V): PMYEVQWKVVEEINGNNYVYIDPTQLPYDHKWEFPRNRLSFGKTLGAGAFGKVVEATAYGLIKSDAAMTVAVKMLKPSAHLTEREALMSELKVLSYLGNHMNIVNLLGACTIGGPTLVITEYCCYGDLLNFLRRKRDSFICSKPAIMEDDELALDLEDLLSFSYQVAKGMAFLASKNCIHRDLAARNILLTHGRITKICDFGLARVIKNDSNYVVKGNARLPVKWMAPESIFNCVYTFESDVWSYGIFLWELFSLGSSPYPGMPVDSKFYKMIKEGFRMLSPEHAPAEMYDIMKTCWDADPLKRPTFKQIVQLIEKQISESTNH
# T2 sequence (P10721 26-976): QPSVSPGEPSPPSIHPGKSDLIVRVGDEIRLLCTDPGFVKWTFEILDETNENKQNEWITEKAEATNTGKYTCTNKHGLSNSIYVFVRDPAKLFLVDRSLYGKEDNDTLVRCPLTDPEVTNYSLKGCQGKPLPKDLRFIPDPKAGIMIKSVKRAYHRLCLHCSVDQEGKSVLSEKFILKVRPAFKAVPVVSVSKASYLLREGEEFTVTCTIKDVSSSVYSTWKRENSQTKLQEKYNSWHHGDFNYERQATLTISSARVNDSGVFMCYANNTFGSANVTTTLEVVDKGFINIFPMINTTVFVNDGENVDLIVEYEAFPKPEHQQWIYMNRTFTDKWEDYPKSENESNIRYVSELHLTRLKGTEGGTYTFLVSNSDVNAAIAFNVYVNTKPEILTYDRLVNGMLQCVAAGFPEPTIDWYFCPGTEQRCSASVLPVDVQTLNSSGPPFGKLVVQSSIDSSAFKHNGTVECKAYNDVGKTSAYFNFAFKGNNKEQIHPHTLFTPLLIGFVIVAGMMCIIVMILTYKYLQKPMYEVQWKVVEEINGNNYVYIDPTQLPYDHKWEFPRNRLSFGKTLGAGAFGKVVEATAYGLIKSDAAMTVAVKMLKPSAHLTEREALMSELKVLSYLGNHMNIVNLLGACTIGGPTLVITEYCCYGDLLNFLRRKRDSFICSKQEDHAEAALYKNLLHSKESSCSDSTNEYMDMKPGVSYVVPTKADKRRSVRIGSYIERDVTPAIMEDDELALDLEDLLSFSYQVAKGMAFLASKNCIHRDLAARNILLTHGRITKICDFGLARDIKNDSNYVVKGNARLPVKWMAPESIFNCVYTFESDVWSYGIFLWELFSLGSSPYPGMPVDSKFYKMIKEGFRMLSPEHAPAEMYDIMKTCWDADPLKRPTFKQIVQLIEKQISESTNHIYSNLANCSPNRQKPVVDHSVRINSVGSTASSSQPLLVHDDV
Structure (SMILES),IC50 (c-kit mutant D816V) [µM],IC50 (c-kit kinase) [µM]
"COc1ccc([C@H](C)NC(=O)N2CCN(c3ncnc4cc(-c5ccc(F)cc5)sc34)CC2(C)C)cc1 [P-0576, 4-[6-(4-fluorophenyl)thieno[3,2-d]pyrimidin-4-yl]-N-[(1S)-1-(4-methoxyphenyl)ethyl]-2,2-dimethyl-piperazine-1-carboxamide]",0.0001 to 1,10 to 200
"C[C@H](NC(=O)N1CCN(c2ncnc3cc(-c4ccc(F)cc4)sc23)CC1(C)C)c1cccc(OC(F)F)c1 [P-0577, N-[(1S)-1-[3-(difluoromethoxy)phenyl]ethyl]-4-[6-(4-fluorophenyl)thieno[3,2-d]pyrimidin-4-yl]-2,2-dimethyl-piperazine-1-carboxamide]",0.0001 to 1,10 to 200
"C[C@H](NC(=O)N1CC=C(c2ncnc3cc(-c4ccc(F)cc4)sc23)CC1)c1cccc(Cl)c1 [P-0579, N-[(1S)-1-(3-chlorophenyl)ethyl]-4-[6-(4-fluorophenyl)thieno[3,2-d]pyrimidin-4-yl]-3,6-dihydro-2H-pyridine-1-carboxamide]",1 to 10,10 to 200
"C[C@H](NC(=O)N1CCN(c2ncnc3cc(-c4ccc(F)cc4)sc23)CC1(C)C)c1cccc(Cl)c1 [P-0580, N-[(1S)-1-(3-chlorophenyl)ethyl]-4-[6-(4-fluorophenyl)thieno[3,2-d]pyrimidin-4-yl]-2,2-dimethyl-piperazine-1-carboxamide]",0.0001 to 1,10 to 200
"COc1cccc([C@H](C)NC(=O)N2CC=C(c3ncnc4cc(-c5ccc(F)cc5)sc34)CC2)c1 [P-0581, 4-[6-(4-fluorophenyl)thieno[3,2-d]pyrimidin-4-yl]-N-[(1S)-1-(3-methoxyphenyl)ethyl]-3,6-dihydro-2H-pyridine-1-carboxamide]",0.0001 to 1,1 to 10
"COc1cccc([C@H](C)NC(=O)N2CC=C(c3ncnc4cc(-c5cn(C)nc5C)sc34)CC2)c1 [P-0582, 4-[6-(1,3-dimethylpyrazol-4-yl)thieno[3,2-d]pyrimidin-4-yl]-N-[(1S)-1-(3-methoxyphenyl)ethyl]-3,6-dihydro-2H-pyridine-1-carboxamide]",0.0001 to 1,1 to 10
"Cc1ccc(S(=O)(=O)Nc2ccc(-c3ncnc4cc(C5=CCN(C(=O)C6CC6)CC5)sc34)cc2)cc1 [P-0583, N-[4-[6-[1-(cyclopropanecarbonyl)-3,6-dihydro-2H-pyridin-4-yl]thieno[3,2-d]pyrimidin-4-yl]phenyl]-4-methyl-benzenesulfonamide]",0.0001 to 1,0.0001 to 1
"Cc1nn(C)cc1-c1cc2ncnc(N3CCN(C(=O)N[C@@H](C)c4cccc(F)c4)[C@H](C)C3)c2s1 [P-0584, (2R)-4-[6-(1,3-dimethylpyrazol-4-yl)thieno[3,2-d]pyrimidin-4-yl]-N-[(1S)-1-(3-fluorophenyl)ethyl]-2-methyl-piperazine-1-carboxamide]",0.0001 to 1,1 to 10
"C[C@H](NC(=O)N1CCN(c2ncnc3cc(-c4ccc(F)cc4)sc23)C[C@H]1C)c1cccc(F)c1 [P-0585, (2R)-N-[(1S)-1-(3-fluorophenyl)ethyl]-4-[6-(4-fluorophenyl)thieno[3,2-d]pyrimidin-4-yl]-2-methyl-piperazine-1-carboxamide]",1 to 10,1 to 10
"C[C@H](NC(=O)N1CCN(c2ncnc3cc(-c4ccc(F)cc4)sc23)C[C@H]1C)c1cccc(OC(F)F)c1 [P-0586, (2R)-N-[(1S)-1-[3-(difluoromethoxy)phenyl]ethyl]-4-[6-(4-fluorophenyl)thieno[3,2-d]pyrimidin-4-yl]-2-methyl-piperazine-1-carboxamide]",0.0001 to 1,1 to 10
"Cc1nn(C)cc1-c1cc2ncnc(N3CCN(C(=O)N[C@@H](C)c4cccc(OC(F)F)c4)[C@H](C)C3)c2s1 [P-0587, (2R)-N-[(1S)-1-[3-(difluoromethoxy)phenyl]ethyl]-4-[6-(1,3-dimethylpyrazol-4-yl)thieno[3,2-d]pyrimidin-4-yl]-2-methyl-piperazine-1-carboxamide]",0.0001 to 1,10 to 200
"O=C(NCc1ccc(F)cc1)N1CCN(c2ncnc3cc(C4CCN(C(=O)C5CC5)CC4)sc23)CC1 [P-0588, 4-[6-[1-(cyclopropanecarbonyl)-4-piperidyl]thieno[3,2-d]pyrimidin-4-yl]-N-[(4-fluorophenyl)methyl]piperazine-1-carboxamide]",0.0001 to 1,10 to 200
"C[C@H](NC(=O)N1CCN(c2ncnc3cc(N4CCOCC4)sc23)CC1)c1ccc(F)cc1 [P-0589, N-[(1S)-1-(4-fluorophenyl)ethyl]-4-(6-morpholinothieno[3,2-d]pyrimidin-4-yl)piperazine-1-carboxamide]",0.0001 to 1,10 to 200
"Cc1ccc(S(=O)(=O)Nc2ccc(-c3ncnc4cc(C5=CCN(C(=O)N6CCOCC6)CC5)sc34)cc2)cc1 [P-0590, 4-methyl-N-[4-[6-[1-(morpholine-4-carbonyl)-3,6-dihydro-2H-pyridin-4-yl]thieno[3,2-d]pyrimidin-4-yl]phenyl]benzenesulfonamide]",0.0001 to 1,0.0001 to 1
"Cc1nn(C)cc1-c1cc2ncnc(N3CCN(C(=O)N[C@@H](C)c4cccc(Cl)c4)[C@H](C)C3)c2s1 [P-0591, (2R)-N-[(1S)-1-(3-chlorophenyl)ethyl]-4-[6-(1,3-dimethylpyrazol-4-yl)thieno[3,2-d]pyrimidin-4-yl]-2-methyl-piperazine-1-carboxamide]",0.0001 to 1,10 to 200
"Cc1ccc(S(=O)(=O)Nc2ccc(-c3ncnc4cc(C5CCNCC5)sc34)cc2)cc1 [P-0592, 4-methyl-N-[4-[6-(4-piperidyl)thieno[3,2-d]pyrimidin-4-yl]phenyl]benzenesulfonamide]",0.0001 to 1,10 to 200
"C[C@H](NC(=O)N1CCN(c2ncnc3cc(-c4ccc(F)cc4)sc23)CC1(C)C)c1ccc(F)cc1 [P-0593, N-[(1S)-1-(4-fluorophenyl)ethyl]-4-[6-(4-fluorophenyl)thieno[3,2-d]pyrimidin-4-yl]-2,2-dimethyl-piperazine-1-carboxamide]",0.0001 to 1,10 to 200
"COc1cccc([C@H](C)NC(=O)N2CCN(c3ncnc4cc(-c5ccc(F)cc5)sc34)CC2(C)C)c1 [P-0594, 4-[6-(4-fluorophenyl)thieno[3,2-d]pyrimidin-4-yl]-N-[(1S)-1-(3-methoxyphenyl)ethyl]-2,2-dimethyl-piperazine-1-carboxamide]",0.0001 to 1,1 to 10
"CC1(C)CN(c2ncnc3cc(-c4ccc(F)cc4)sc23)CCN1 [P-0595, 4-(3,3-dimethylpiperazin-1-yl)-6-(4-fluorophenyl)thieno[3,2-d]pyrimidine]",10 to 200,10 to 200
"O=C(NCc1ccc(F)cc1)N1CCN(c2ncnc3cc(C4CCNCC4)sc23)CC1 [P-0596, N-[(4-fluorophenyl)methyl]-4-[6-(4-piperidyl)thieno[3,2-d]pyrimidin-4-yl]piperazine-1-carboxamide]",1 to 10,10 to 200
"COc1cccc([C@H](C)NC(=O)N2CCN(c3ncnc4cc(-c5cn(C)nc5C)sc34)C[C@H]2C)c1 [P-0598, (2R)-4-[6-(1,3-dimethylpyrazol-4-yl)thieno[3,2-d]pyrimidin-4-yl]-N-[(1S)-1-(3-methoxyphenyl)ethyl]-2-methyl-piperazine-1-carboxamide]",0.0001 to 1,1 to 10
"Cc1nn(C)cc1-c1cc2ncnc(N3CCN(C(=O)N[C@@H](C)c4ccc(F)cc4)[C@H](C)C3)c2s1 [P-0599, (2R)-4-[6-(1,3-dimethylpyrazol-4-yl)thieno[3,2-d]pyrimidin-4-yl]-N-[(1S)-1-(4-fluorophenyl)ethyl]-2-methyl-piperazine-1-carboxamide]",0.0001 to 1,10 to 200
"COc1cccc([C@H](C)NC(=O)N2CCN(c3ncnc4cc(-c5ccc(F)cc5)sc34)C[C@H]2C)c1 [P-0600, (2R)-4-[6-(4-fluorophenyl)thieno[3,2-d]pyrimidin-4-yl]-N-[(1S)-1-(3-methoxyphenyl)ethyl]-2-methyl-piperazine-1-carboxamide]",0.0001 to 1,10 to 200
"C[C@@H]1CN(c2ncnc3cc(-c4ccc(F)cc4)sc23)CCN1C(=O)NCc1ccc(F)cc1 [P-0602, (2R)-N-[(4-fluorophenyl)methyl]-4-[6-(4-fluorophenyl)thieno[3,2-d]pyrimidin-4-yl]-2-methyl-piperazine-1-carboxamide]",0.0001 to 1,10 to 200
"Cc1nn(C)cc1-c1cc2ncnc(C3CCN(C(=O)N[C@@H](C)c4ccc(F)cc4)CC3)c2s1 [P-0603, 4-[6-(1,3-dimethylpyrazol-4-yl)thieno[3,2-d]pyrimidin-4-yl]-N-[(1S)-1-(4-fluorophenyl)ethyl]piperidine-1-carboxamide]",1 to 10,10 to 200
"Cc1nn(C)cc1-c1cc2ncnc(C3CCN(C(=O)NCc4ccc(F)cc4)CC3)c2s1 [P-0604, 4-[6-(1,3-dimethylpyrazol-4-yl)thieno[3,2-d]pyrimidin-4-yl]-N-[(4-fluorophenyl)methyl]piperidine-1-carboxamide]",0.0001 to 1,1 to 10
"COc1cccc([C@@H](C)NC(=O)N2CCN(c3ncnc4cc(-c5ccc(F)cc5)sc34)C[C@H]2C)c1 [P-0605, (2R)-4-[6-(4-fluorophenyl)thieno[3,2-d]pyrimidin-4-yl]-N-[(1R)-1-(3-methoxyphenyl)ethyl]-2-methyl-piperazine-1-carboxamide]",10 to 200,10 to 200
